Where a name gives a salt, the structure may show the parent alone.
How the values were obtained:
primary neurons [1] = assay: TMRM fluorescence assay of inner mitochondrial membrane potential (ΔΨm); conditions: for TMRM Primary: primary screen; for TMRM Primary / hit in TMRM primary screen when assayed at 4 h: 12.5 μM; for TMRM Primary / TMRM Rescreen: 24 h; for Emax / EC50: Mus musculus, Primary neuron; for Emax: read-out: TMRM (Effect-size); for EC50: read-out: TMRM-EC50
Experimental: Mitochondrial dyes. To assay the electrochemical potential across the inner mitochondrial membrane of cultured cells, we used the cell-permeant dye tetramethylrhodamine methyl ester (TMRM). For co-localization studies with Mt-GFP, TMRM was used at 20 nM on DIV14 and incubated for 30 min prior to imaging. For the orthogonal screen of compounds, TMRM was added to primary neurons on DIV13 at 10 nM, one hr prior to pintooling selected compounds, and incubated for 24 hr. Cells were washed 2× with pre-warmed fresh feeding media without B27 before measurements with a plate reader.
(§1) A CLARIOstar (BMG LABTECH) microplate reader was used to measure fluorescence of TMRM and luminescence produced from the ATP.
(§2) Mitochondrial membrane potential (Δψm) and luminescence-based ATP assays. […] Changes of ΔΨm in each well were monitored using the mitochondrial-specific, fluorescent dye TMRM (tetramethyl rhodamine, methyl ester; Molecular Probes) and measured using a CLARIOstar plate reader. […] This concentration was used throughout our experiments. […] Wells in columns 1 and 24 were not loaded with TMRM; these served to measure background signal which was subtracted from the wells to which TMRM was added. To measure the total ATP levels in neurons we utilized the CellTiter-Glo® luminescence-based ATP assay (Promega). DIV13 primary neurons were cultured for 24 h with either DMSO carrier or compound treatment, followed by removing 55 μl culture medium from each well. Plates were maintained at room temperature for 25 m, and 25 μl of CellTiter-Glo® Reagent with the substrate luciferin was then added to each well (Promega). Plates were covered with aluminum foil and shaken vigorously on an orbital shaker for 10 m at 200 rpm and maintained at room temperature for an additional 2 m in dark before being read with the plate reader set to the luminescence mode.
Compound library and hit picking rules. We screened 2400 compounds from the MicroSource Spectrum library. […] FIGS. 13A-13E provide details of the assays used from which hit picking rules were made. In essence, the average fluorescence for each compound in the TMRM assay was determined and compared to the average fluorescence for compounds in the population on each assay plate to produce a Z-score. The Z-scores for each individual compound assayed across the four replicate plates was then averaged.

primary neurons [2] = assay: CellTiter-Glo luminescence-based ATP assay; format: cell-based, mouse; conditions: for ATP: ATP orthogonal screen, 24 h; for EC50 / Emax: Mus musculus, Primary neuron, dose response; for EC50: 15 concentrations from 6 nM to 100 uM; for Emax: maximal percent increase relative to in-plate DMSO controls, read-out: ATP (Effect-size)
Experimental: Measurement of ATP production. The total amount of ATP produced by cultured primary neurons was measured by CellTiter-Glo Luminescent Cell Viability Assay (Promega). A recombinant luciferase enzyme catalyzed the mono-oxygenation of luciferin while hydrolyzing ATP produced by the cells and emitting light. We followed the manufacturer's protocol with primary neurons on DIV14.
as §1, §2
Compound library and hit picking rules. We screened 2400 compounds from the MicroSource Spectrum library. […] FIGS. 13A-13E provide details of the assays used from which hit picking rules were made. In essence, the average fluorescence for each compound in the TMRM assay was determined and compared to the average fluorescence for compounds in the population on each assay plate to produce a Z-score. The Z-scores for each individual compound assayed across the four replicate plates was then averaged. Because of significant well location effects (outer rows) on each assay plate (FIG. 13G), we selected primary hits as enhancing well fluorescence above the μplate by 3σplate for inner row wells (rows C-N, columns 3-22), and by 2.5σplate for outer row wells (rows A, B, O, P; columns 3-22) (FIG. 14C-D). […] All orthogonal assays employed inner wells of the 384-well plates.

SMILES | TMRM Primary (primary neurons [1]) [Z-scores] | TMRM Rescreen (primary neurons [1]) [Z-scores] | ATP (primary neurons [2]) [Z-scores] | hit in TMRM primary screen when assayed at 4 h (primary neurons [1]) | Emax (primary neurons [1]) [%] | EC50 (primary neurons [1]) [nM] | EC50 (primary neurons [2]) [nM] | Emax (primary neurons [2]) [%]
OC(CNCC(O)C1CCc2cc(F)ccc2O1)C1CCc2cc(F)ccc2O1 (stereo not shown) [nebivolol hydrochloride] | 3.73 | 5.29 | 6.92 |  |  |  |  | 
CC(=O)O[C@]1(C(C)=O)CC[C@H]2[C@@H]3C[C@H](C)C4=CC(=O)CC[C@]4(C)[C@H]3CC[C@@]21C [medroxyprogesterone acetate] | 3.66 | 3.67 | 2.64 | medroxyprogesterone acetate* |  |  |  | 
CN1CCN(CC/C=C2/c3ccccc3Sc3ccc(S(=O)(=O)N(C)C)cc32)CC1 [thiothixene] | 3.08 | 3.38 | 3.80 |  |  |  |  | 
Clc1ccc(CO/N=C(\Cn2ccnc2)c2ccc(Cl)cc2Cl)c(Cl)c1 [oxiconazole nitrate] | 3.08 | 3.28 | 5.76 |  |  |  |  | 
CC(C)(C)NC[C@H](O)COc1ccccc1C1CCCC1 [penbutolol sulfate] | 3.16 | 5.35 | 3.39 |  |  |  |  | 
CCc1nc(N)nc(N)c1-c1ccc(Cl)cc1 [pyrimethamine] | 3.43 | 4.00 | 6.54 | pyrimethamine* |  |  |  | 
CC(C)NC[C@@H](O)COc1cccc2ccccc12.Cl [dexpropranolol hydrochloride [R(+)]] | 4.37 | 4.79 | 6.22 |  |  |  |  | 
COC(=O)C1=C(C)NC(C)=C(C(=O)OCCN(C)Cc2ccccc2)C1c1cccc([N+](=O)[O-])c1 (stereo not shown) [nicardipine hydrochloride] | 4.22 | −5.52 | −3.75 |  |  |  |  | 
CCN(CC)CC(=O)Nc1c(C)cccc1C [lidocaine hydrochloride] | 3.06 | 4.69 | 6.98 |  | 17.4 | 1890 | 110 | 15.8
C=C[C@H]1CN2CC[C@H]1C[C@H]2[C@H](OC(=O)OCC)c1ccnc2ccc(OC)cc12 [quinine ethyl carbonate] | 4.64 | 6.26 | 3.60 |  |  |  |  | 
CN(C)CCCN1c2ccccc2CCc2ccccc21 [imipramine hydrochloride] | 3.31 | 0.91 | 5.10 |  |  |  |  | 
C[C@]12CC[C@@H]3c4ccc(O)cc4CC[C@H]3[C@@H]1CC[C@@H]2OC(=O)CCC1CCCC1 [estradiol cypionate] | 2.59 | 4.67 | 2.98 |  |  |  |  | 
CCN1CCCC(OC(=O)C(c2ccccc2)c2ccccc2)C1 (stereo not shown) [piperidolate hydrochloride] | 3.58 | 3.76 | 5.72 |  |  |  |  | 
C[N+]12CCC(CC1)C(OC(=O)C(O)(c1ccccc1)c1ccccc1)C2 (stereo not shown) [clidinium bromide] | 2.49 | 4.11 | 6.21 |  | 14.3 | 450 | 420 | 20.5
CN(C)CCCN1c2ccccc2Sc2ccccc21 [promazine hydrochloride] | 3.81 | 4.04 | 4.76 |  |  |  |  | 
CN(C)CCOc1ccc(/C(=C(/CCCl)c2ccccc2)c2ccccc2)cc1 [toremifene citrate] | 3.31 | 7.05 | 3.29 |  |  |  |  | 
CC(=O)Oc1ccc2c(c1)CCC1C2CC[C@]2(C)C(=O)CCC12 (stereo partly shown) [estrone acetate] | 3.26 | 5.89 | 3.36 |  |  |  |  | 
